From article PMC7244523, “A Cell-based Screen in Actinomyces oris to Identify Sortase Inhibitors” (Scientific Reports, 2020) come the findings set out here.

For one experiment, the target named is AoSrtA (Actinomyces oris, UniProt A0A0X8K1J2). Description: FRET-based in vitro sortase activity assay, AoSrtA. It counts as biochemical. The protocol:
(§1) The ability of the hit molecules to inhibit sortase activity was measured in vitro using an established FRET-based assay[13] that measures the ability of each enzyme to cleave a fluorogenic peptide substrate; Abz-LAQTG-Dap(Dnp)-NH2 and Abz-LPETG-Dap(Dnp)-NH2, substrates for ^AoSrtA and ^SaSrtA, respectively. Each enzyme cleaves between the threonine and glycine bond in these peptides, leading to a measurable increase in fluorescence (see Methods). The IC50 value of each compound was determined for both the ^AoSrtA and ^SaSrtA enzymes.
(§2) IC50 values for the six hit molecules against the ^AoSrtA and ^SaSrtA enzymes were determined as previously described, with some modifications. Briefly, molecules 1–6 were serial diluted 2-fold (from 1.25 mM to 2.44 µM, 500 µM to 0.98 µM final assay concentration) into 25 µM ^AoSrtA or ^SaSrtA (final assay concentration 10 µM) in buffer A (20 mM HEPES pH 7, 5 mM CaCl2, 0.05% TWEEN, 30% DMSO). The final DMSO concentration was […] in the assay. Samples were incubated 1 hour at room temperature and aliquoted into a 384-well plate (EK-30892). Thirty microliters of FRET peptide (Peptide 2.0) in buffer B (20 mM HEPES pH 7, 5 mM CaCl2, 0.05% TWEEN), […] for ^SaSrtA or Abz-LAQTG-Dap(Dnp)-NH2 for ^AoSrtA was added and the plate was immediately placed into a Flexstation II plate reader (Molecular Devices) and fluorescence was recorded at 335/420 nm excitation/emission wavelengths after 5 seconds of plate shaking to mix the reaction components. Plate fluorescence was measured over the course of 30 minutes.

A further experiment deals with SaSrtA (Staphylococcus aureus, UniProt Q2FV99). Put plainly: FRET-based in vitro sortase activity assay, SaSrtA. The class given is biochemical. As to the method: as §1, §2
SaSrtA, sequence (Q2FV99 whole entry): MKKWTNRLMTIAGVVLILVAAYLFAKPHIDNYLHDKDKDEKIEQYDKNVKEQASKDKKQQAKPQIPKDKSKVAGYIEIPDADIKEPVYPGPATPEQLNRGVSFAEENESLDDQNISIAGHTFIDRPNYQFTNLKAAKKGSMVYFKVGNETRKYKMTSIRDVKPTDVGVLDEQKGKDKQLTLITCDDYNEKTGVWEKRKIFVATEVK
A further experiment concerns A. oris ΔgspA. Put plainly: Cell fractionation and immunoblot with α-FimA (type 2 pilus). It counts as cell-based, Actinomyces oris. The conditions noted are these: 10 µM, 3 hours, ΔgspA strain, versus control. As to the method: To understand the physiological effects that these molecules have on the display of pili and surface proteins on the surface of A. oris, we grew cells with 10 µM of each hit molecule and assessed sortase activity by western blot and electron microscopy as previously reported. To avoid a confounding problem that inhibiting ^AoSrtA causes cell arrest, we performed the experiments in a mutant devoid of gspA; the aforementioned genetic suppressor of sortase lethality.
(§3) Cell fractionation and Western blotting were followed according to a published protocol. Briefly, the cultures of A. oris strains grown in BHI at 37 °C until OD600 of 0.25 were aliquoted, and bacterial aliquots were treated with 10 µM of individual sortase inhibitors for 3 hours. Bacterial cultures were then normalized to equal OD600, and cells were fractionated into culture medium (S), cell wall (W), and protoplast fractions. Isolated fractions were subjected to protein precipitation by 7.5% trichloroacetic acid, followed by washing with cold acetone, except for the protoplast fractions. Protein samples were dissolved in hot sodium dodecyl sulfate (SDS)-containing sample buffer, separated by 3–12% Tris-glycine gradient gels, and subjected to immunoblotting with specific antisera (α-FimA, 1:10,000 dilution; α-GspA, α-MdbA, α-SrtC2 and α-SrtA, 1:4000 dilution), followed by chemo-luminescence detection.
Background: In western blotting, separated proteins are transferred to a membrane and probed.

A further experiment deals with A. oris ΔlcpA. Put plainly: Cell fractionation and immunoblot with α-GspA (cell wall anchoring of GspA). The class given is cell-based, Actinomyces oris. The note with it: 10 µM, ΔlcpA strain; for GspA polymers (immunoblot α-GspA): 3 hours; for GspA display / cell wall associated GspA: Fig. 4B. The protocol:
To examine if these molecules inhibit cell wall anchoring of surface proteins (e.g. GspA), we similarly treated cells devoid of lcpA, i.e. ΔlcpA, another suppressor of srtA[46]. […] To corroborate these observations, we subjected A. oris cells of ΔgspA and Δlcp strains to 10 μM of each molecule (3, 4 and 6) and studied pilus display with transmission electron microscopy (TEM), whereby A. oris cells were immobilized on nickel grids and stained with 1% uranyl acetate prior to viewing by an electron microscope.
as §3

Setting [1] is: IC50 (A. oris), AoSrtA 10 µM, Abz-LAQTG-Dap(Dnp)-NH2, 1 hour preincubation.
Setting [2] is: IC50 values, range over compounds, range for both AoSrtA and SaSrtA, in µM.

As usually defined, the IC50 is the midpoint of a concentration-inhibition curve. A lower IC50 goes with inhibition by little substance.

AoSrtA, sequence (A0A0X8K1J2 entry or part of it): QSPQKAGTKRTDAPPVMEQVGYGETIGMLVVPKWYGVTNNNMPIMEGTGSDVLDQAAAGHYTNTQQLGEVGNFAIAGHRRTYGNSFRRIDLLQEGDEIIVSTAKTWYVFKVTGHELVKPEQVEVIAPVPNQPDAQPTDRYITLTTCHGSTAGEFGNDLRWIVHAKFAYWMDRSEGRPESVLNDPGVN

Take `Cc1nc(COc2ccc(F)cc2)sc1CC(=O)Nc1nc2c(s1)CC(C)CC2` (stereo not drawn) [Compound 6]: the IC50 against AoSrtA (setting [1]) is 139 µM; against AoSrtA (setting [2]) it was 73 to 170 µM; at SaSrtA, 125 µM. Further, in the experiment on A. oris ΔgspA, the “FimA polymers / type 2 pilus production (immunoblot α-FimA)” value (from here on “FimA polymers / type 2 pilus production”) is on record as “little effect on type 2 pilus production”. The “GspA polymers (immunoblot α-GspA)” value in the experiment on A. oris ΔlcpA is reported as “no GspA polymers were observed”. The “GspA display / cell wall associated GspA” value in the experiment on A. oris ΔlcpA is “significantly diminishes GspA display”.
Regarding `CCc1ccc2nc(N(Cc3cccnc3)C(=O)c3ccc([N+](=O)[O-])o3)sc2c1` [Compound 3], the results for the IC50 at AoSrtA (setting [1]), against AoSrtA (setting [2]) and against SaSrtA were 73.5 µM, 73 to 170 µM and 220 µM, respectively. Further, in the experiment with A. oris ΔgspA, the “FimA polymers / type 2 pilus production” value is “decreased FimA polymers”. Also, the “GspA polymers (immunoblot α-GspA)” value in the experiment on A. oris ΔlcpA was “no GspA polymers were observed”. Besides, the “GspA display / cell wall associated GspA” value in the experiment on A. oris ΔlcpA is given as “decreased amounts of cell wall associated GspA”.
With `COc1ccc2nc(N(Cc3ccccc3)C(=O)c3ccc([N+](=O)[O-])o3)sc2c1` [Compound 4], the 50% inhibitory concentration (IC50) is 171 µM on AoSrtA (setting [1]), 73 to 170 µM against AoSrtA (setting [2]) and 488 µM on SaSrtA. For the same compound, the “FimA polymers / type 2 pilus production” value in the experiment with A. oris ΔgspA is “decreased FimA polymers”. Moreover, the “GspA polymers (immunoblot α-GspA)” value in the experiment on A. oris ΔlcpA was “no GspA polymers were observed”. The “GspA display / cell wall associated GspA” value in the experiment on A. oris ΔlcpA is “decreased amounts of cell wall associated GspA”.
